According to patent US7091238B1, “Thienylhydrazon with digitalis-like properties (positive inotropic effects)” (University of Maryland, priority 1999, dated 2006):
“Also recorded” adds a separate entry of the source.

Assays:
[1] = system: contractile system of cardiac fibers; experiment: Ca2+-induced tension in Triton X-100 treated left ventricular muscle bundles; design: species or system Wistar rats
Description: FIG. 12. Muscle bundles were treated with 1% Triton X-100 for 60 min and exposed to solutions containing increasing concentrations of Ca^2+ in the presence or absence of LASSBio-294 (100 μM). Calibration: Vertical, 10 mm=20 mg; Horizontal, 10 mm=40 sec.
FIG. 13. Bundles of left ventricular muscles were treated with Triton X-100 and exposed to increasing concentrations of Ca^2+. Muscle tension expressed as % of the maximal response induced by 0.5 mM CaCl2 is graphed as a function of pCa.
b. Graphic representation of the tests in FIG. 7 showing the effect of LASSBio-294 on uptake of Ca^2+ by sarcoplasmic reticulum in isolated cardiac muscle with sarcolemma removed. FIG. 9 illustrates the effect of LASSBio-294 on tension in isolated cardiac muscle with sarcolemma removed was measured. Measurement of contraction induced by caffeine, as a function concentration of LASSBio-294 in bathing solution. FIG. 9 is a graphic representation of the effect of increasing concentrations of LASSBio-294 between 0 and 20 μM. […] FIG. 12 illustrates the effect of LASSBio-294 on sensitivity of cardiac fibers to calcium. Calcium levels can induce isometric twitch. […]
Bundles of left ventricular muscle (130 μm diameter and 1–2 mm in thickness) from Wistar rats were dissected out and mounted for measurement of isometric tension. […] Comparison of caffeine alone to caffeine in the presence of LASSBio-294 was measured.

[2] = system: isolated dog hearts; experiment: Intraventricular and aortic pressure in isolated dog hearts under pre-load (Langendorff's method); details: compared to control or wash out
Excerpt: Predictive tests can also be performed on isolated hearts of animals. Testing intraventricular and arterial pressure in isolated dog hearts, under pre-load, is an animal model for human congestive heart disease, as is well known in the art. This is called Langendorff's method. It allows examination of therapeutic strategies to treat congestive heart disease. When dog hearts were so tested, LASSBio-294 treated hearts achieved a 50% increase in intraventricular and aortic pressure compared to control or wash out after treatment. […] These tests predict that the invention has utility as a medicament in the treatment of congestive heart failure (Curtis, M. J., (1998) Cardiovasc. Res. 39, 194–21, incorporated expressly by reference herein).

[3] = system: isolated rat heart; experiment: Electrocardiogram of isolated heart (modified Langendorff perfusion); details: isolated rat heart without pre-load; 10, 50, 100 μM
Description: FIG. 4. Hearts of adult rats were quickly removed and placed in an aorta retrograde perfusion system (modified Langendorrff) for measurement of electrocardiogram (ECG).
a Recordings of electrocardiogram (ECG) of isolated rat heart are shown in FIG. 4 which compare control, LASSBio-294 treatment, 10 uM, 50 μM and 100 μM and post-treatment wash. […] FIG. 5 illustrates a test of change in isometric tension induced by LASSBio-294 in isolated hearts under preload. Concentration of LASSBio-294 in the bathing solution is 50 μM, which is half of the highest concentration tested in the ECG tests described in FIG. 4. Hearts were treated under a pre-load of 1 g; control was compared to LASSBio-294 and wash. […] This effect was lost in the wash out period. The pre-load tension test is considered to be an animal model of congestive heart disease. Comparing the effect of drugs with this test is predictive of therapeutic effect of treatment in human congestive heart disease. General Method
Hearts were quickly removed and placed in an aorta retrograde perfusion system for measurement of ECG. Increasing concentrations of LASSBio-294 were added to the bathing solution. The system equilibrated for 5 min. before measurement of isometric tension after each addition.

[4] = system: dogs; experiment: Left intraventricular and arterial pressure in intact anesthetized dogs; assay type: in vivo, dog; details: normal cardiac function, no pre-load, 1 mg kg^−1 min^−1 for 13 min
Description: FIG. 6. Recording of left intraventricular pressure and arterial pressure in dogs anesthetized and ventilated normally.
FIG. 6 illustrates a test that measured pressure from the hearts of intact dogs during LASSBio-294 application. Recordings were made of left intraventricular pressure and arterial pressure.
Dogs were anesthetized and normally ventilated. Recordings were made before and after application of LASSBio-294, 1 mg kg^−1 min^−1 for 13 min.

[5] = system: rat thoracic aorta; experiment: Relaxation of noradrenaline-precontracted thoracic aortic rings
Excerpt: Aortic rings: Male wistar rats (300–350 g) were anaesthetized with ether and killed by cervical dislocation. The thoracic aorta was quickly removed, placed in physiological solution, cleaned of fat and connective tissue, and cut into 3-mm rings. In some experiments endothelium was mechanically removed by gently rubbing inverted rings on a cotton surface moistened with physiological solution. The rings were fixed in an organ bath chamber filled with physiological solution (composition (mM): NaCl 122, KCl 5, NaHCO3 15, glucose 11.5, MgCl2 1.25, CaCl2 1.25 and KH2PO4 1.25) aerated with O2/CO2, maintained at 37° C., and left to equilibrate for 60 min during which the physiological solution was changed twice. All experiments were carried out under an initial tension of 20 mN, and the developed active tension was measured isometrically using a Grass Transducer (FT03). Data were acquired and analyzed by Chart 3.4/s software (MacLab, USA). The contraction was induced by 1 μM Noradrenaline (NOR) and when it reached a plateau the relaxant drugs (or solvent—time-matched control) were added. The rings contracted with 1 μM NOR that relaxed 40–50% in response to 1 μM acetylcholine were considered with intact endothelium. Drugs: LASSBio-294 and ODQ were dissolved in 100% dimethyl sulphoxide (DMSO). Noradrenalin, 1-NAME, IBMX, methylene blue, acetylcholine and indomethacin were purchased from SIGMA (USA). All drugs but indomethacin were dissolved in water in the day of the experiment. Indomethacin was dissolved in 5% sodium carbonate. Statistics: Data are presented as mean ±sem. Statistical analysis was performed using the Primer software. Vasodilator responses are expressed in percentage of the maximal contraction induced by 1 μM NOR. Differences were considered significant at p<0.05 (Student's t test).

[6] = system: tissues and organs; experiment: Histopathological study of tissues and organs after daily injection; assay type: in vivo, rat; details: 2 or 10 mg/kg injected daily for more than 14 days
[7] = system: Na^+/K^+-ATPase extracted from heart muscle or gastrocnemius muscle; experiment: Effect on Na+/K+-ATPase; assay type: biochemical; details: enzyme from rat heart or gastrocnemius muscle

With `O=C(NN=Cc1cccs1)c1ccc2c(c1)OCO2` [LASSBio-294, 3,4-methylenedioxybenzoyl-2-thienylhydrazone] the “sensitivity of muscle fibers to calcium” value [1] was “does not change”, the “isometric twitch response at each level of pCa” value ([1]; Triton X-100 treated fibers, 100 μM vs control) was “greater in the presence of LASSBio-294 than in control” and the “increase in intraventricular and aortic pressure” value [2] was 50%. For the same compound, the “effect on ECG” value [3] was “No treatment had any effect on ECG; also recorded: no change”, the “left intraventricular pressure and arterial pressure” value [4] was “no change in pressure” and the “vasodilator activity (conclusion)” value [5] was “has vasodilator activity”. For the same compound, the “relaxation of aortic rings with intact endothelium” value ([5]; 1 μM noradrenaline precontraction, 100 μM) was “relaxed noradrenaline-precontracted aortic rings; also recorded: relaxed intact aortic rings in a concentration-dependent manner”, the “relaxation after addition of methylene blue” value ([5]; 30 μM methylene blue added after compound 100 μM) was “fully reversed” and the “relaxation after pre-treatment with methylene blue” value ([5]; 30 μM methylene blue added before compound) was “not able to induce relaxation; also recorded: prevented; also recorded: abolishes”. For the same compound, the “relaxation after 1-NAME treatment” value ([5]; 1-NAME 100 μM during 30 min) was “no difference in the relaxation”, the “vasorelaxation in presence of ODQ” value ([5]; ODQ 10 μM, compound 100 μM, preliminary assays) was “prevented” and the “relaxation in endothelium-denuded aorta” value ([5]; endothelium removed) was “abolished”. The “relaxation after 1-NAME plus indomethacin” value ([5]; inhibition of both NOS and cycloxigenase pathways) was “same level of relaxation observed in the presence of only 1-NAME; also recorded: the same as observed in the presence of 1-NAME alone”, the “relaxation compared with acetylcholine and IBMX” value ([5]; intact rings, 1 μM noradrenaline) was “more slowly; also recorded: less pronounced” and the “histopathological changes in tissues and organs” value [6] was “unaffected; also recorded: no pathological changes; also recorded: no significant histopathological changes”. The “effect on Na^+/K^+-ATPase” value [7] was “did not affect”.
